In patent publication US20110190280A1, “Thiazole And Oxazole Kinase Inhibitors” (priority 2007, published 2011) one finds IC50 data, which are given here for 11 molecules.

One experiment deals with SK-MEL-28 tumor cells. The experiment is described as follows: Cell growth inhibition assay (CellTiter-Glo), SK-MEL-28.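 Also: luminescent total ATP as a proxy for cell number, threefold serial dilutions at 0.2% DMSO, percent growth inhibition versus DMSO vehicle control wells.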 As to conditions: Homo sapiens, SK-MEL-28, 72 h, read-out: Activity in SK-MEL-28 Tumor Cells. For orientation: In ATP-based viability assays light output follows the ATP content of the culture.
The next experiment relates to A375P tumor cells. The experiment is described as follows: Cell growth inhibition assay (CellTiter-Glo), A375P.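 Also: total ATP luminescence used as proxy for cell number, serial threefold compound dilutions at 0.2% DMSO, growth inhibition expressed versus DMSO vehicle-treated wells.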 As to conditions: Homo sapiens, 72 h, read-out: Activity in A375P Tumor Cells.
In a further experiment the target is B-Raf (Homo sapiens, UniProt P15056). The experiment is described as follows: B-Raf Accelerated MEK ATPase assay (BRAMA). The class given is biochemical. The procedure, abridged:
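B-Raf activity read as intrinsic MEK ATPase: catalytic activated RAF with non-phosphorylated MEK drives ADP formation, coupled through pyruvate kinase and lactate dehydrogenase to NADH oxidation, independent of ERK phosphorylation.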

The test system of another experiment is SK-MEL-3 tumor cells. The experiment is described as follows: Cell growth inhibition assay (CellTiter-Glo), SK-MEL-3.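 Also: human melanoma cells grown with compound for 3 days in 0.2% DMSO, total ATP read by luminescence as proxy for cell number, growth inhibition versus DMSO-treated wells.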 As to conditions: Homo sapiens, SK-MEL3, 72 h, read-out: Activity in SK-MEL-3 Tumor Cells.
Another experiment relates to HT-29 tumor cells. In words: Cell growth inhibition assay (CellTiter-Glo), HT-29.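 Also: ATP content read by luminescence as proxy for cell number, growth inhibition versus DMSO vehicle wells, 0.2% DMSO final, nine serial threefold compound dilutions.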 As to conditions: Homo sapiens, HT-29, 72 h, read-out: Activity in HT-29 Tumor Cells.
The next experiment deals with Colo205 tumor cells. In words: Cell growth inhibition assay (CellTiter-Glo), Colo205.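 Also: growth measured via total ATP luminescence (CellTiter-Glo) as a proxy for cell number, inhibition expressed against DMSO-treated control wells, 3-day exposure at 0.2% final DMSO.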 As to conditions: Homo sapiens, COLO 205, 72 h, read-out: Activity in Colo205 Tumor Cells.
Where [1] appears, read: BRAMA enzyme assay, class by pIC50, read-out: B-Raf Activity.

SMILES strings stand for the structures. Counter-ions that a name gives are not always drawn. Like-named read-outs stand apart in the source and are kept apart here. A value given as a limit tells only on which side of the number the result lay.

Experimental for Colo205 tumor cells: Cell Growth Inhibition Assays Human colon tumor cells (Colo205) were cultured in RPMI (Mediatech 50-020-PB) containing 10% FBS and 1% penicillin-streptomycin. […] Human melanoma cancer cells (A375-F11S) were cultured in RPMI (Mediatech 50-020-PB) containing 10% FBS, 1% sodium pyruvate, and 1% penicillin-streptomycin. Human colon cancer cells (HT-29) were cultured in high glucose DMEM (Mediatech 50-013-PB) containing 10% FBS and 1% penicillin-streptomycin. Human melanoma cancer cells (SK-MEL-3) were cultured in McCoy's 5A (50-025-PB) containing 15% FBS, and 1% penicillin-streptomycin. All cell lines were maintained at 37° C. in a humidified 5% CO2, 95% air incubator.
The next day, compounds were diluted as follows: For 96-well assays, 13.5 μl of compound in DMSO were diluted using nine (9) serial 1:3 dilutions of 4.5 μl in 9 μl of DMSO. Medium (270 μl/well of RPMI with 10% FBS and 1% penicillin-streptomycin) was added to the plates. Aliquots (7 μl) were added to cells in the final assay giving a final DMSO concentration of 0.2%. For 384-well assays, 15 μl of compound in DMSO were diluted using nine (9) serial 1:3 dilutions of 5 μl in 10 μl of DMSO, followed by a further dilution of 5 μl of compound with 95 μl of medium, of which 2 μl are added to cells in the final assay giving a final DMSO concentration of 0.2%. Cells were incubated at 37° C., 5% CO2 for 3 days.
Total ATP was measured (as a surrogate estimate of cell number) using CellTiter-Glo® (Promega G7571) reagent. Briefly, plates were removed from the incubator and allowed to equilibrate to room temperature for 30 minutes. CellTiter-Glo® (25 μl or 55 μl for 384-well or 96-well assays, respectively) reagent was added to each well and plates were shaken on an orbital plate shaker for 2 minutes. Plates were incubated without shaking for a further 30 minutes and read on an LJL Analyst GT reader in luminometer mode with an integration time of 0.5 seconds per well. Percent inhibition of cell growth was calculated relative to DMSO vehicle-treated control wells.

On to `COCCN1CCN(c2ccc(Nc3nccc(-c4sc(NC5CC5)nc4-c4cc(OC)cc(OC)c4)n3)cn2)CC1` [Example 18, 4-[4-[3,5-Bis(methyloxy)phenyl]-2-(cyclopropylamino)-1,3-thiazol-5-yl]-N-(6-{4-[2-(methyloxy)ethyl]-1-piperazinyl}-3-pyridinyl)-2-pyrimidinamine], for which the IC50 in the experiment with SK-MEL-28 tumor cells is under 0.5 µM; in the experiment on A375P tumor cells, under 0.5 µM; at B-Raf (setting [1]), under 0.1 µM; in the experiment on SK-MEL-3 tumor cells it was under 0.5 µM; in the experiment with HT-29 tumor cells it was under 0.5 µM; in the experiment with Colo205 tumor cells, under 0.5 µM.

Take `CCNc1nc(-c2cc(C)cc(OC)c2)c(-c2ccnc(Nc3ccc4c(c3)CS(=O)(=O)C4)n2)s1` [Example 14, N-(2,2-Dioxido-1,3-dihydro-2-benzothien-5-yl)-4-{2-(ethylamino)-4-[3-methyl-5-(methyloxy)phenyl]-1,3-thiazol-5-yl}-2-pyrimidinamine]: the IC50 was 0.5 to 5 µM in the experiment on SK-MEL-28 tumor cells; under 0.5 µM in the experiment with A375P tumor cells; under 0.1 µM at B-Raf (setting [1]); under 0.5 µM with SK-MEL-3 tumor cells; under 0.5 µM in the experiment on HT-29 tumor cells; under 0.5 µM in the experiment with Colo205 tumor cells.

As to `CCNc1nc(-c2cc(C)cc(OC)c2)c(-c2ccnc(Nc3ccc(N4CCN(CCF)CC4)c(F)c3)n2)o1` [Example 128], the IC50 was 0.5 to 5 µM in the experiment with SK-MEL-28 tumor cells; 0.5 to 5 µM with A375P tumor cells; under 0.1 µM at B-Raf; 0.5 to 5 µM in the experiment on SK-MEL-3 tumor cells; 0.5 to 5 µM in the experiment with HT-29 tumor cells; under 0.5 µM in the experiment with Colo205 tumor cells.

Turning to `CCNc1nc(-c2cccc(N(C)C)c2)c(-c2ccnc(Nc3ccc(N4CCOCC4)nc3)n2)s1` [Example 47, 4-[4-[3-(Dimethylamino)phenyl]-2-(ethylamino)-1,3-thiazol-5-yl]-N-[6-(4-morpholinyl)-3-pyridinyl]-2-pyrimidinamine], the IC50 was over 5 µM with SK-MEL-28 tumor cells; under 0.5 µM in the experiment on A375P tumor cells; under 0.1 µM at B-Raf (setting [1]); under 0.5 µM in the experiment on SK-MEL-3 tumor cells; under 0.5 µM in the experiment on HT-29 tumor cells; 0.5 to 5 µM in the experiment with Colo205 tumor cells.

With `CCNc1nc(-c2cc(OC)cc(OC)c2)c(-c2ccnc(Nc3ccc(N4CCOCC4)nc3)n2)o1` [Example 120], the IC50 with SK-MEL-28 tumor cells was 0.5 to 5 µM; in the experiment on A375P tumor cells it was 0.5 to 5 µM; at B-Raf (setting [1]) it was under 0.1 µM; with SK-MEL-3 tumor cells, 0.5 to 5 µM; in the experiment with HT-29 tumor cells, 0.5 to 5 µM; with Colo205 tumor cells, under 0.5 µM.

For `CCNc1nc(-c2cc(C)cc(OC)c2)c(-c2ccnc(Nc3cc(OC)c(OC4CCN(CCS(C)(=O)=O)CC4)c(OC)c3)n2)o1` [Example 131], the IC50 with SK-MEL-28 tumor cells was 0.5 to 5 µM; in the experiment on A375P tumor cells, 0.5 to 5 µM; on B-Raf (setting [1]), under 0.1 µM; in the experiment on SK-MEL-3 tumor cells, under 0.5 µM; in the experiment with HT-29 tumor cells, 0.5 to 5 µM; in the experiment on Colo205 tumor cells, under 0.5 µM.

As for `COc1cc(C)cc(-c2nc(C(C)C)oc2-c2ccnc(Nc3ccc(N4CCOCC4)nc3)n2)c1` [Example 99], the IC50 is 0.5 to 5 µM in the experiment on SK-MEL-28 tumor cells; 0.5 to 5 µM with A375P tumor cells; under 0.1 µM at B-Raf (setting [1]); 0.5 to 5 µM with SK-MEL-3 tumor cells; 0.5 to 5 µM in the experiment on HT-29 tumor cells; 0.5 to 5 µM in the experiment with Colo205 tumor cells.

As to `COc1cc(OC)cc(-c2nc(NC3CCC3)sc2-c2ccnc(Nc3ccc(OC4CCN(CCS(C)(=O)=O)CC4)c(F)c3)n2)c1` [Example 22, 4-[4-[3,5-Bis(methyloxy)phenyl]-2-(cyclobutylamino)-1,3-thiazol-5-yl]-N-[3-fluoro-4-({1-[2-(methylsulfonyl)ethyl]-4-piperidinyl}oxy)phenyl]-2-pyrimidinamine], the IC50 in the experiment on SK-MEL-28 tumor cells is under 0.5 µM; with A375P tumor cells, under 0.5 µM; at B-Raf (setting [1]), under 0.1 µM; in the experiment on SK-MEL-3 tumor cells, under 0.5 µM; in the experiment on HT-29 tumor cells, under 0.5 µM; in the experiment on Colo205 tumor cells it was under 0.5 µM.

Turning to `COc1cc(OC)cc(-c2nc(Nc3ccccc3)sc2-c2ccnc(Nc3ccc(OC4CCN(CCS(C)(=O)=O)CC4)c(F)c3)n2)c1` [Example 23, 4-[4-[3,5-Bis(methyloxy)phenyl]-2-(phenylamino)-1,3-thiazol-5-yl]-N-[3-fluoro-4-({1-[2-(methylsulfonyl)ethyl]-4-piperidinyl}oxy)phenyl]-2-pyrimidinamine hydrochloride], the IC50 in the experiment on SK-MEL-28 tumor cells is 0.5 to 5 µM; in the experiment with A375P tumor cells it was 0.5 to 5 µM; on B-Raf (setting [1]), under 0.1 µM; with SK-MEL-3 tumor cells, under 0.5 µM; in the experiment on HT-29 tumor cells, under 0.5 µM; in the experiment on Colo205 tumor cells it was 0.5 to 5 µM.

As to `COc1cc(OC)cc(-c2nc(NC3CC3)sc2-c2ccnc(Nc3ccc(O[C@@H]4CCN(CCF)C4)nc3)n2)c1` [Example 19, 4-[4-[3,5-Bis(methyloxy)phenyl]-2-(cyclopropylamino)-1,3-thiazol-5-yl]-N-(6-{[(3R)-1-(2-fluoroethyl)-3-pyrrolidinyl]oxy}-3-pyridinyl)-2-pyrimidinamine], the IC50 with SK-MEL-28 tumor cells was under 0.5 µM; in the experiment on A375P tumor cells, under 0.5 µM; at B-Raf (setting [1]), under 0.1 µM; in the experiment on SK-MEL-3 tumor cells, under 0.5 µM; in the experiment with HT-29 tumor cells it was under 0.5 µM; in the experiment on Colo205 tumor cells, under 0.5 µM.

For the molecule `COc1cccc(-c2nc(CO)sc2-c2ccnc(Nc3ccc(OCCN4CCCC4)c(F)c3)n2)c1` [Example 60, {5-{2-[(3-Fluoro-4-{[2-(1-pyrrolidinyl)ethyl]oxy}phenyl)amino]-4-pyrimidinyl}-4-[3-(methyloxy)phenyl]-1,3-thiazol-2-yl}methanol], the IC50 was 0.5 to 5 µM with SK-MEL-28 tumor cells; 0.5 to 5 µM in the experiment on A375P tumor cells; under 0.1 µM on B-Raf (setting [1]); under 0.5 µM with SK-MEL-3 tumor cells; under 0.5 µM with HT-29 tumor cells; under 0.5 µM with Colo205 tumor cells.
